Source: PMC12442009, “Self-Assembling Cyclic Peptide Nanotubes for the Delivery of Doxorubicin into Drug-Resistant Cancer Cells” (ACS Applied Materials & Interfaces, 2025)
Where two headings read alike, the source gives them in different places. Square brackets hold non-standard residues; d marks the D form. Peptide text beside a SMILES is read from it. * marks the point of attachment. X1 = COc1cccc2c1C(=O)c1c(O)c3c(c(O)c1C2=O)C[C@@](O)(C(CO)=NNC(=O)CCCCCN1C(=O)CC(*)C1=O)C[C@@H]3O[C@H]1C[C@H](N)[C@H](O)[C@H](C)O1; Pra = C#CC[C@H](N)C(=O)O

Legend:
[1] = test system: NCI/ADR-RES (doxorubicin-resistant ovarian cancer cell line); experiment: MTT cell growth inhibition, NCI/ADR-RES; format: cell-based; settings: for E max (% inhibition): inhibition at highest concentration tested (100 μM)
Protocol: (§1) The cell growth inhibition of each compound was evaluated using the MTT (3-[4,5-dimethylthiazol-2-yl]-2,5-diphenyltetrazolium bromide) assay. MCF-7 and MRC-5 cells were grown on a Minimum Essential Medium Eagle, while NCI-H460 and NCI/ADR-RES cells were grown on RPMI 1640 culture medium. All culture mediums were supplemented with 10% FBS (fetal bovine serum) and 1% penicillin-streptomycin-glutamine mix. […] MCF-7 (100,000 cells/mL), NCI-H460 (150,000 cells/mL), NCI/ADR-RES (150,000 cells/mL), or MRC-5 (100,000 cells/mL) cells were seeded the day before in sterile 96-well plates (100 μL/well). Then, cells were incubated with each concentration of the compound (100 μL/well) for the specified time for each cell line. The compounds were previously dissolved in DMSO and diluted at the time of the experiment with complete medium to the concentration to be tested. The DMSO content of each well was maintained at less than 1%. All concentrations were carried out with triplicate points, and controls with DMSO at the same proportion in which the compounds were dissolved were included in all experiments. After the incubation time, the samples were removed, and 100 μL of complete medium with 0.5 mg/mL MTT was added to each well. Cells were incubated for 4 h, and the medium was removed. The resulting formazan crystals were dissolved in DMSO (100 μL/well). The absorbance of each well at 595 nm was acquired with a Tecan Infinite F200Pro plate reader. A blank subtraction was performed (cells treated with Triton X-100), and the data were normalized to the value of the untreated cells (100% viability). Data were analyzed with GraphPad Prism software.

[2] = test system: NCI-H460 (lung cancer cell line); settings: for E max (% inhibition): inhibition at highest concentration tested (100 μM)
Protocol: as §1

NCI/ADR-RES cells [3] = experiment: Confocal microscopy internalization and colocalization; settings: 50 μM, 2 h
[4] = test system: MCF-7 (breast cancer cell line); experiment: MTT cell growth inhibition, MCF-7; format: cell-based; settings: for E max (% inhibition): inhibition at highest concentration tested (100 μM), triplicate points
Protocol: as §1

[5] = Hydrazone stability / DOX release followed by mass spectrometry; format: physicochemical; settings: 200 μM; for stability (DOX release) at pH 5.0: pH 5.0 (10 mM citrate buffer), followed over 72 h; for stability (DOX release) at physiological pH: pH 7.0 (H2O), 72 h
NCI/ADR-RES cells [6] = experiment: Cell uptake by RP-HPLC of cell lysates; settings: 100 μM, 120 min, 37 °C minus 4 °C, ACN/H2O extraction, RP-HPLC 460 nm, normalized vs initial concentration incubated
Protocol: NCI/ADR-RES cells (10^6) were seeded in T-25 Flasks. After 24 h, the medium was removed, and a solution of DOX or CP1T NBD -DOX (100 μM) in culture medium (7 mL) was added. The cells were incubated for 120 min at 37 °C under a CO2 atmosphere (5%). Then, the medium was removed, and the cells were washed with cold PBS (3 × 3 mL). After washing, a mixture of ACN/H2O (1.5 mL, 80:20) was added to the flask and incubated overnight at 4 °C. Solvent samples were transferred to 1.5 mL Eppendorf and centrifuged at 12,000 g for 15 min at 4 °C, and the supernatant was evaporated to dryness. Analogous experiments were carried out by incubating the compounds at 4 °C for 120 min to determine the nonspecific binding to the cell membrane, since the uptake is decreased at this temperature. To evaluate the efficiency of solvent extraction, 10^6 cells were seeded in a T-25 Flask. […] The resulting lysates were analyzed by RP-HPLC by dissolving the Eppendorf samples in an aqueous solution of TFA (1%, 100 μL). All of the intracellular compound quantities were calculated from the detected area and divided by the efficiency of solvent extraction. Cell uptake was calculated by subtracting the intracellular compound quantity from the assay carried out at 37 °C from the quantity obtained at 4 °C and normalized to 100% vs the initial concentration incubated.

[7] = test system: MRC-5 (human embryonic lung cell line); experiment: MTT cytotoxicity in noncancerous fibroblasts MRC-5; format: cell-based; settings: MRC-5 fibroblasts, 7 days incubation
[8] = test system: NCI-H460 (lung cancer cell line); experiment: cells; settings: Homo sapiens, NCI-H460, 48 h
Protocol: as §1

[9] = NCI/ADR-RES, 72 h incubation, MTT
[10] = NCI-H460, 48 h incubation, MTT, calculated only if E max > 50%
[11] = MCF-7, 96 h incubation, MTT, 50% growth inhibition, calculated only if E max > 50%, read-out: IC50
[12] = NCI/ADR-RES, 48 h incubation, MTT, calculated only if E max > 50%, read-out: IC50
[13] = NCI/ADR-RES, 72 h incubation, MTT, calculated only if E max > 50%, read-out: IC50
[14] = NCI/ADR-RES, 48 h incubation, MTT

| SMILES | E max (% inhibition) [1, 9] [% inhibition] | IC50 [2, 10] [µM] | E max (% inhibition) ([2]; NCI-H460, 48 h incubation, MTT) | cell internalization / localization by confocal microscopy (NCI/ADR-RES cells [3]) | IC50 [4, 11] [µM] | E max (% inhibition) ([4]; MCF-7, 96 h incubation, MTT) | IC50 [1, 12] [µM] | IC50 [1, 13] [µM] | E max (% inhibition) [1, 14] [% inhibition] | also measured |
| --- | --- | --- | --- | --- | --- | --- | --- | --- | --- | --- |
| C#CC[C@@H]1NC(=O)[C@@H](Cc2c[nH]c3ccccc23)NC(=O)[C@H](CO)NC(=O)[C@@H](CCCCN)NC(=O)[C@H](CO)NC(=O)[C@@H](CSC2CC(=O)N(CCCCCC(=O)NN=C(CO)[C@]3(O)Cc4c(O)c5c(c(O)c4[C@@H](O[C@H]4C[C@H](N)[C@H](O)[C@H](C)O4)C3)C(=O)c3c(OC)cccc3C5=O)C2=O)NC(=O)[C@H](CCC(N)=O)NC(=O)[C@@H](CCCCN)NC1=O (stereo partly drawn) [CP1-DOX] (cyclo(Q[dC](X1)S[dK]S[dW][Pra][dK])) | 22 ± 4 | 2.8 ± 0.1 | 75 ± 1 | mainly trapped in small compartments of the cytoplasm | 3.5 ± 0.3 | 81 ± 1 |  |  |  | stability (DOX release) at pH 5.0 [5]: drug release was observed after 72 h under these conditions, although part of the cyclic peptide conjugate survived after this time; stability (DOX release) at physiological pH [5]: much more stable at physiological pH, with a small release of the drug after 72 h |
| CCCCCCCCCCn1cc(C[C@@H]2NC(=O)[C@@H](Cc3c[nH]c4ccccc34)NC(=O)[C@H](CO)NC(=O)[C@@H](CCCCN)NC(=O)[C@H](CO)NC(=O)[C@@H](CSC3CC(=O)N(CCCCCC(=O)NN=C(CO)[C@]4(O)Cc5c(O)c6c(c(O)c5[C@@H](O[C@H]5C[C@H](N)[C@H](O)[C@H](C)O5)C4)C(=O)c4c(OC)cccc4C6=O)C3=O)NC(=O)[C@H](CCC(N)=O)NC(=O)[C@@H](CCCCN)NC2=O)nn1 (stereo partly drawn) [CP1T10-DOX] | 84 ± 3 | 3.1 ± 0.1 | 93 ± 1 | cells with a colored nucleus | 3.4 ± 0.4 | 89 ± 1 | 38.4 ± 0.7 | 10.8 ± 1.7 |  | stability (DOX release) at pH 5.0 [5]: the molecular ion corresponding to the drug is still very minor after this time; stability (DOX release) at physiological pH [5]: much more stable at physiological pH, with a small release of the drug after 72 h |
| CCCCCCCCCCn1cc(C[C@@H]2NC(=O)[C@@H](Cc3c[nH]c4ccccc34)NC(=O)[C@H](CO)NC(=O)[C@@H](CCCCN)NC(=O)[C@H](CO)NC(=O)[C@@H](CS)NC(=O)[C@H](CCC(N)=O)NC(=O)[C@@H](CCCCN)NC2=O)nn1 [CP1T10] |  |  | 28 ± 1 |  | 78.8 ± 0.1 | 59 ± 1 | 68.9 ± 2.1 |  | 70 ± 2 |  |
| CCCCCCCCCCCCCCn1cc(C[C@@H]2NC(=O)[C@@H](Cc3c[nH]c4ccccc34)NC(=O)[C@H](CO)NC(=O)[C@@H](CCCCN)NC(=O)[C@H](CO)NC(=O)[C@@H](CSC3CC(=O)N(CCCCCC(=O)NN=C(CO)[C@]4(O)Cc5c(O)c6c(c(O)c5[C@@H](O[C@H]5C[C@H](N)[C@H](O)[C@H](C)O5)C4)C(=O)c4c(OC)cccc4C6=O)C3=O)NC(=O)[C@H](CCC(N)=O)NC(=O)[C@@H](CCCCN)NC2=O)nn1 (stereo partly drawn) [CP1T14-DOX] |  |  |  |  |  |  |  | 5.7 ± 2.7 | 44 ± 4 |  |
| COc1cccc2c1C(=O)c1c(O)c3c(c(O)c1C2=O)C[C@@](O)(C(CO)=NNC(=O)CCCCCN1C(=O)CC(SC[C@H]2NC(=O)[C@H](CCC(N)=O)NC(=O)[C@@H](CCCCN)NC(=O)[C@H](Cc4cn(CCCCC(=O)NCCNc5ccc([N+](=O)[O-])c6nonc56)nn4)NC(=O)[C@@H](Cc4c[nH]c5ccccc45)NC(=O)[C@H](CO)NC(=O)[C@@H](CCCCN)NC(=O)[C@H](CO)NC2=O)C1=O)C[C@@H]3O[C@H]1C[C@H](N)[C@H](O)[C@H](C)O1 (stereo partly drawn) [CP1T NBD -DOX] |  |  |  |  |  |  |  | 3.7 ± 0.2 | 30 ± 3 | cell uptake (NCI/ADR-RES cells [6]): 56.34% |
| C#CC[C@@H]1NC(=O)[C@@H](Cc2c[nH]c3ccccc23)NC(=O)[C@H](CO)NC(=O)[C@@H](CCCCN)NC(=O)[C@H](CO)NC(=O)[C@@H](CS)NC(=O)[C@H](CCC(N)=O)NC(=O)[C@@H](CCCCN)NC1=O [CP1] (cyclo([Pra][dK]Q[dC]S[dK]S[dW])) |  |  |  |  |  |  |  |  | 90 ± 1 | IC50 ([1]; 48 h): 55.8 ± 0.7 µM; IC50 ([2]; 48 h): 37.9 ± 0.4 µM; IC50 ([4]; 96 h): 17.7 ± 0.3 µM |
| C#CC[C@@H]1NC(=O)[C@@H](Cc2c[nH]c3ccccc23)NC(=O)[C@H](CO)NC(=O)[C@@H](CSC2CC(=O)N(CCCCCC(=O)NN=C(CO)[C@]3(O)Cc4c(O)c5c(c(O)c4[C@@H](O[C@H]4C[C@H](N)[C@H](O)[C@H](C)O4)C3)C(=O)c3c(OC)cccc3C5=O)C2=O)NC(=O)[C@H](CO)NC(=O)[C@@H](CCCNC(=N)N)NC(=O)[C@H](CCC(N)=O)NC(=O)[C@@H](CCCCN)NC1=O (stereo partly drawn) [CP2-DOX] (cyclo(Q[dR]S[dC](X1)S[dW][Pra][dK])) | 13 ± 1 | 2.9 ± 0.3 | 92 ± 1 | minimum cell internalization | 1.8 ± 0.2 | 80 ± 1 |  |  |  |  |
| CCCCCCCCCCn1cc(C[C@@H]2NC(=O)[C@@H](Cc3c[nH]c4ccccc34)NC(=O)[C@H](CO)NC(=O)[C@@H](CSC3CC(=O)N(CCCCCC(=O)NN=C(CO)[C@]4(O)Cc5c(O)c6c(c(O)c5[C@@H](O[C@H]5C[C@H](N)[C@H](O)[C@H](C)O5)C4)C(=O)c4c(OC)cccc4C6=O)C3=O)NC(=O)[C@H](CO)NC(=O)[C@@H](CCCNC(=N)N)NC(=O)[C@H](CCC(N)=O)NC(=O)[C@@H](CCCCN)NC2=O)nn1 (stereo partly drawn) [CP2T10-DOX] | 64 ± 7 | 1.7 ± 0.1 | 93 ± 1 | cells with a colored nucleus | 2.6 ± 0.3 | 88 ± 1 | 33.4 ± 0.3 | 21.8 ± 6.4 |  |  |
| CCCCCCCCCCn1cc(C[C@@H]2NC(=O)[C@@H](Cc3c[nH]c4ccccc34)NC(=O)[C@H](CO)NC(=O)[C@@H](CS)NC(=O)[C@H](CO)NC(=O)[C@@H](CCCNC(=N)N)NC(=O)[C@H](CCC(N)=O)NC(=O)[C@@H](CCCCN)NC2=O)nn1 [CP2T10] |  |  | 80 ± 2 |  |  | 63 ± 1 |  |  | 75 ± 2 | IC50 ([1]; 48 h): 68.2 ± 4.6 µM; IC50 ([4]; 96 h): 50.2 ± 0.6 µM |
| CCCCCCCCCCCCCCn1cc(C[C@@H]2NC(=O)[C@@H](Cc3c[nH]c4ccccc34)NC(=O)[C@H](CO)NC(=O)[C@@H](CSC3CC(=O)N(CCCCCC(=O)NN=C(CO)[C@]4(O)Cc5c(O)c6c(c(O)c5[C@@H](O[C@H]5C[C@H](N)[C@H](O)[C@H](C)O5)C4)C(=O)c4c(OC)cccc4C6=O)C3=O)NC(=O)[C@H](CO)NC(=O)[C@@H](CCCNC(=N)N)NC(=O)[C@H](CCC(N)=O)NC(=O)[C@@H](CCCCN)NC2=O)nn1 (stereo partly drawn) [CP2T14-DOX] | 51 ± 4 |  |  |  |  |  |  | 8.2 ± 0.8 | 39 ± 9 | E max (% inhibition) ([1]; NCI/ADR-RES, 72 h incubation, MTT, listed as CP2T 14 -DOX): good activity |
| C#CC[C@@H]1NC(=O)[C@@H](Cc2c[nH]c3ccccc23)NC(=O)[C@H](CO)NC(=O)[C@@H](CS)NC(=O)[C@H](CO)NC(=O)[C@@H](CCCNC(=N)N)NC(=O)[C@H](CCC(N)=O)NC(=O)[C@@H](CCCCN)NC1=O [CP2] (cyclo([Pra][dK]Q[dR]S[dC]S[dW])) |  |  | 8 ± 1 |  |  | 48 ± 1 |  |  |  |  |
| N.N.[Cl][Pt][Cl] [Cisplatin, cisplatin, reference compound] |  | 5.1 ± 0.6 | 53 ± 1 |  | 7.8 ± 0.6 | 78 ± 1 | 11.5 ± 0.6 |  | 90 ± 1 |  |
| COc1cccc2c1C(=O)c1c(O)c3c(c(O)c1C2=O)C[C@@](O)(C(=O)CO)C[C@@H]3O[C@H]1C[C@H](N)[C@H](O)[C@H](C)O1 [DOX, doxorubicin] |  |  | 56 ± 1 | no significant internalization |  | 86 ± 1 |  |  | 36 ± 4 | E max (% inhibition) ([1]; NCI/ADR-RES, 48 h incubation, MTT, listed as doxorubicin): 36 % inhibition; cell uptake (NCI/ADR-RES cells [6]): 21.56%; cytotoxicity in MRC-5 [7]: significant cytotoxicity; IC50 ([4]; Homo sapiens, MCF7, MCF-7, 96 h incubation, MTT, 50% growth inhibition, calculated only if E max > 50%, read-out: IC50): 0.82 ± 0.1 µM; IC50 [8]: 9.3 ± 1.7 µM |
